In ChEMBL document CHEMBL1201862, “PubChem BioAssay data set” (2004):
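All cell lines were grown in 96-well plates and treated with compound for 48 hours. Abbreviation: GI50, concentration required for 50% inhibition of growth.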 The source made the active and inactive calls. Cut-off read from the data, not from the text of the source: active = GI50 up to about 1.1 µM and inactive = higher.

Legend:
Assay in all cases: NCI anticancer screen, dose series, 48 h
OVCAR-8 = test system: OVCAR-8
MDA-MB-231 = test system: MDA-MB-231
CAKI-1 = test system: CAKI-1
786-0 = test system: 786-0
U-251 = test system: U-251
T47D = test system: T47D
M14 = test system: M14
NCI-H226 = test system: NCI-H226
KM12 = test system: KM12
RXF 393 = test system: RXF 393
ACHN = test system: ACHN
NCI-H522 = test system: NCI-H522
HOP-92 = test system: HOP-92
LOX IMVI = test system: LOX IMVI
TK-10 = test system: TK-10
CCRF-CEM = test system: CCRF-CEM
SW-620 = test system: SW-620
A549 = test system: A549
UO-31 = test system: UO-31
SK-MEL-5 = test system: SK-MEL-5

SMILES | GI50 (OVCAR-8) | GI50 (MDA-MB-231) | GI50 (CAKI-1) | GI50 (786-0) | GI50 (U-251) | GI50 (T47D) | GI50 (M14) | GI50 (NCI-H226) | GI50 (KM12) | GI50 (RXF 393) | GI50 (ACHN) | GI50 (NCI-H522) | GI50 (HOP-92) | GI50 (LOX IMVI) | GI50 (TK-10) | GI50 (CCRF-CEM) | GI50 (SW-620) | GI50 (A549) | GI50 (UO-31) | GI50 (SK-MEL-5)
CCc1ccc2nccc(NCCCN(C)C)c2c1[N+](=O)[O-] | > 100 µM (inactive) | 56.1 µM (inactive) | 46.6 µM (inactive) | > 100 µM (inactive) | > 100 µM (inactive) | > 100 µM (inactive) | 28.8 µM (inactive) | > 100 µM (inactive) | > 100 µM (inactive) | 71.8 µM (inactive) | > 100 µM (inactive) | 74.6 µM (inactive) | > 100 µM (inactive) | 62.7 µM (inactive) | > 100 µM (inactive) | > 100 µM (inactive) | > 100 µM (inactive) | > 100 µM (inactive) | 86.3 µM (inactive) | 44.3 µM (inactive)
CC(=O)c1ccc2c3c1O[C@H]1c4[nH]c5ccccc5c4C[C@@]4(O)[C@@H](C2)N(CC2CC2)CC[C@]314 | 13.6 µM (inactive) | 12.8 µM (inactive) | 20 µM (inactive) | 15 µM (inactive) | 12.2 µM (inactive) | 19.9 µM (inactive) | 16.9 µM (inactive) | 17.1 µM (inactive) | 21.3 µM (inactive) | 13.8 µM (inactive) | 17.2 µM (inactive) | 19.1 µM (inactive) | 14.5 µM (inactive) | 16.9 µM (inactive) | 18.2 µM (inactive) | 2.06 µM (inactive) | 0.179 µM (active) | 1.15 µM (inactive) | 15.3 µM (inactive) | 16 µM (inactive)
CCN(C(=S)N[C@H](C(=O)N[C@@H](C)C(=O)OC)C(C)C)c1ccccc1 | 21.8 µM (inactive) | > 100 µM (inactive) | > 100 µM (inactive) | 59.7 µM (inactive) | > 100 µM (inactive) | > 100 µM (inactive) | 53.2 µM (inactive) | > 100 µM (inactive) | > 100 µM (inactive) | 62.1 µM (inactive) | 64.4 µM (inactive) | 16.6 µM (inactive) | 51.4 µM (inactive) | 52.6 µM (inactive) | 88.5 µM (inactive) | 27.8 µM (inactive) | 59.7 µM (inactive) | > 100 µM (inactive) | 60.8 µM (inactive) | 71.4 µM (inactive)
CN(C)CCNc1nc2ccccc2c2c1C(=O)c1ccccc1-2 | 0.195 µM (active) | 0.542 µM (active) | 0.124 µM (active) | 0.132 µM (active) | 0.219 µM (active) | 0.281 µM (active) | 0.316 µM (active) | 0.205 µM (active) | 0.326 µM (active) | 0.18 µM (active) | 0.0834 µM (active) | 0.211 µM (active) | 0.327 µM (active) | 0.147 µM (active) | 0.513 µM (active) | 0.0923 µM (active) | 0.137 µM (active) | 0.0581 µM (active) | 0.15 µM (active) | 0.301 µM (active)
CCOC1OC(=O)c2cc3ccc4c(c3c(-c3ccc5c(c3)OCO5)c21)OCO4 (stereo not given) | 35.7 µM (inactive) | 17.4 µM (inactive) | 4.48 µM (inactive) | 9.06 µM (inactive) | 5.68 µM (inactive) | 9.79 µM (inactive) | 3.4 µM (inactive) | 4.71 µM (inactive) | 4.58 µM (inactive) | 5.79 µM (inactive) | 10.4 µM (inactive) | 0.687 µM (active) | 96.8 µM (inactive) | 3.79 µM (inactive) | 4.75 µM (inactive) | 9.33 µM (inactive) | 6.04 µM (inactive) | 3.08 µM (inactive) | 22 µM (inactive) | 2.72 µM (inactive)
Clc1ccc(-c2ccc(-c3nnc(CCc4nnc(-c5ccc(-c6ccc(Cl)cc6)o5)o4)o3)o2)cc1 | > 91 µM (inactive) | 28.3 µM (inactive) | > 100 µM (inactive) | > 43.3 µM (inactive) | 17.1 µM (inactive) | 75.7 µM (inactive) | > 100 µM (inactive) | > 61.7 µM (inactive) | > 100 µM (inactive) | 25.8 µM (inactive) | > 55.6 µM (inactive) | 24.8 µM (inactive) | > 27.5 µM (inactive) | > 100 µM (inactive) | 40.9 µM (inactive) | 2.89 µM (inactive) | > 95.7 µM (inactive) | > 100 µM (inactive) | > 100 µM (inactive) | > 100 µM (inactive)
CC[C@]1(O)CC(OC2CC(N(C)C)C(O)C(C)O2)c2c(cc3c(c2O)C(=O)c2c(O)cccc2C3=O)[C@@H]1C(=O)OC (stereo not given in full) | 0.0743 µM (active) | 0.351 µM (active) | 0.0466 µM (active) | 0.205 µM (active) | 0.151 µM (active) | 0.649 µM (active) | 0.468 µM (active) | 0.243 µM (active) | 0.225 µM (active) | 0.269 µM (active) | 0.0537 µM (active) | 0.108 µM (active) | 0.22 µM (active) | 0.0859 µM (active) | 0.472 µM (active) | 0.117 µM (active) | 0.0392 µM (active) | 0.136 µM (active) | 0.173 µM (active) | 0.192 µM (active)
CSC1=NC(=O)CCN1C1OCC(OC(C)=O)C(OC(C)=O)C1OC(C)=O (stereo not given) | 15.8 µM (inactive) | 12.4 µM (inactive) | 24.7 µM (inactive) | 16.3 µM (inactive) | 15.8 µM (inactive) | 16.8 µM (inactive) | > 10 µM (inactive) | 18.7 µM (inactive) | 21.5 µM (inactive) | 15.8 µM (inactive) | 17 µM (inactive) | 18.2 µM (inactive) | 14.8 µM (inactive) | > 10 µM (inactive) | 17.1 µM (inactive) | 5.9 µM (inactive) | 18.3 µM (inactive) | 18.6 µM (inactive) | 19.3 µM (inactive) | 10.9 µM (inactive)
CN(C)c1ccc(/C=c2\c3cc([N+](=O)[O-])ccc3n3c2cc(-c2ccccc2)[n+]3C)cc1 | 1.45 µM (inactive) | 1.73 µM (inactive) | 7.66 µM (inactive) | 3.31 µM (inactive) | 0.327 µM (active) | 0.458 µM (active) | 1 µM (active) | 2.75 µM (inactive) | 1.04 µM (active) | 1.06 µM (active) | 5.51 µM (inactive) | 0.497 µM (active) | 1.18 µM (inactive) | 1.57 µM (inactive) | 2.64 µM (inactive) | 0.601 µM (active) | 0.836 µM (active) | 2.94 µM (inactive) | 7.41 µM (inactive) | 0.318 µM (active)
CC1=NN(c2nc(N)nc(CO)n2)C(C)(C)C1 | > 100 µM (inactive) | > 100 µM (inactive) | > 100 µM (inactive) | > 100 µM (inactive) | > 100 µM (inactive) | > 100 µM (inactive) | > 100 µM (inactive) | > 100 µM (inactive) | > 100 µM (inactive) | > 100 µM (inactive) | > 100 µM (inactive) | > 100 µM (inactive) | > 100 µM (inactive) | > 100 µM (inactive) | > 100 µM (inactive) | > 100 µM (inactive) | > 100 µM (inactive) | > 100 µM (inactive) | > 100 µM (inactive) | > 100 µM (inactive)
O=c1c(C(c2ccc(OCc3ccccc3)cc2)c2c(O)oc3ccccc3c2=O)c(O)oc2ccccc12 | 33.4 µM (inactive) | 27 µM (inactive) | 27.2 µM (inactive) | 38.2 µM (inactive) | 39.5 µM (inactive) | 81.1 µM (inactive) | 48.1 µM (inactive) | 30.7 µM (inactive) | 29.6 µM (inactive) | > 100 µM (inactive) | 23.4 µM (inactive) | 27.2 µM (inactive) | 36.2 µM (inactive) | 34.2 µM (inactive) | 62.1 µM (inactive) | 38.2 µM (inactive) | 57.4 µM (inactive) | 40.9 µM (inactive) | 19 µM (inactive) | 29.6 µM (inactive)
CN(CC(=O)O)CC(=O)O | > 100 µM (inactive) | > 100 µM (inactive) | > 100 µM (inactive) | > 100 µM (inactive) | > 100 µM (inactive) | > 100 µM (inactive) | > 100 µM (inactive) | > 100 µM (inactive) | > 100 µM (inactive) | > 100 µM (inactive) | > 100 µM (inactive) | > 100 µM (inactive) | > 100 µM (inactive) | > 100 µM (inactive) | > 100 µM (inactive) | > 100 µM (inactive) | > 100 µM (inactive) | > 100 µM (inactive) | > 100 µM (inactive) | 31 µM (inactive)
CC(C)=CC(=O)c1[nH]c2ccccc2c1CC(=O)NCCc1cn(C(c2ccccc2)(c2ccccc2)c2ccccc2)cn1 | 3.96 µM (inactive) | 2.16 µM (inactive) | 7.87 µM (inactive) | 3.82 µM (inactive) | 2.82 µM (inactive) | 3.77 µM (inactive) | 2.02 µM (inactive) | 2.94 µM (inactive) | 3.29 µM (inactive) | 2.81 µM (inactive) | 3.54 µM (inactive) | 6.71 µM (inactive) | 2.49 µM (inactive) | 2.02 µM (inactive) | 6.76 µM (inactive) | 2.48 µM (inactive) | 3.74 µM (inactive) | 2.87 µM (inactive) | 3.55 µM (inactive) | 2.08 µM (inactive)
Cc1[nH]c2ccccc2c1/C=N/c1ccc(/N=C/c2c(C)[nH]c3ccccc23)cc1 | 29.7 µM (inactive) | 32.5 µM (inactive) | 38.7 µM (inactive) | 18.8 µM (inactive) | 29.6 µM (inactive) | 25.4 µM (inactive) | 71.3 µM (inactive) | 14 µM (inactive) | 16.4 µM (inactive) | 53 µM (inactive) | 49.1 µM (inactive) | 17.5 µM (inactive) | 25.5 µM (inactive) | 19.1 µM (inactive) | 90.4 µM (inactive) | 15.4 µM (inactive) | 22.9 µM (inactive) | 80 µM (inactive) | 77.4 µM (inactive) | 17.2 µM (inactive)
